Legend:
[1] = system: mice; assay: In-vivo efficacy experiment 1: hair scoring in depilated mice given DHT; design: key: 0 = no skin darkening, 5 = complete hair growth
Protocol: 100 mice were deeply anesthetized. First, the hair on the back of the mice was shaved off with an animal hair clipper. Then, depilatory cream (Veet, https://item.jd.com/6291245.html) was evenly applied to the skin surface of the mice. After leaving it for 7-10 minutes, the remaining hair was gently scraped off against the hair growth direction with a depilatory spatula. Finally, the residual depilatory cream on the skin surface was thoroughly washed off with a wet wipe to avoid skin burns in the mice.
The main observation indicators of this experiment are shown in FIG. 12 (literature on hair scoring: Biomolecules & Therapeutics, 17(3), 241-248 (2009)), which is described as follows: (Score 0: No darkening of skin colour observed in any areas; Score 1: Darkening of skin area from greyish to black; Score 2: Visible short hairs; Score 3: Sparse hairs; Score 4: Dense hairs; Score 5: Complete hair growth). After depilation, the mice were photographed and scored three times a week until the end of the experiment.
100 mice were deeply anesthetized. First, the hair on the back of the mice was shaved off with an animal hair clipper. Then, depilatory cream was evenly applied to the skin surface of the mice. After leaving it for 7-10 minutes, the remaining hair was gently scraped off against the hair growth direction with a depilatory spatula. Finally, the residual depilatory cream on the skin surface was thoroughly washed off with a wet wipe to avoid skin burns in the mice.
DHT and test substances (compound of formula I and minoxidil) were administered starting on the day following depilation, which was recorded as Day 1 (the day of depilation was recorded as Day 0). 64 mice in good condition were randomly selected and assigned to each group. Table 1 Experimental grouping
According to the grouping in Table 1, and the corresponding administration dose, test substance concentration and administration volume, […] above experimental design and methods. For groups G7 and G8, which received a combined administration of the compound of formula I and minoxidil, one drug was administered first followed by the other, with the administration interval between the two drugs not exceeding 1 minute.
(§1) Starting from the first day of administration, body weight was weighed and recorded twice a week, and hair regrowth (anagen) scoring and photography were performed […], until the end of the experiment. Scoring was conducted according to the criteria described in the experimental design.

[2] = system: mice; assay: In-vivo efficacy experiment 2: hair scoring in depilated mice given DHT; design: key: 0 = no skin darkening, 5 = complete hair growth
Protocol: 120 mice were deeply anesthetized. First, the hair on the back of the mice was shaved off with an animal hair clipper. Then, depilatory cream (Veet, https://item.jd.com/6291245.html) was evenly applied to the skin surface of the mice. After leaving it for 7-10 minutes, the remaining hair was gently scraped off against the hair growth direction with a depilatory spatula. Finally, the residual depilatory cream on the skin surface was thoroughly washed off with a wet wipe to avoid skin burns in the mice.
DHT and test substances (compound of formula I and minoxidil) were administered starting on the day following depilation, which was recorded as Day 1 (the day of depilation was recorded as Day 0). 86 mice in good condition were randomly selected and assigned to each group.
The main observation indicators of this experiment are shown in FIG. 12 (literature on hair scoring: Biomolecules & Therapeutics, 17(3), 241-248 (2009)), which is described as follows: (Score 0: No darkening of skin colour observed in any areas; Score 1: Darkening of skin area from greyish to black; Score 2: Visible short hairs; Score 3: Sparse hairs; Score 4: Dense hairs; Score 5: Complete hair growth). After depilation, the mice were photographed and scored three times a week until the end of the experiment. Table 4 Experimental grouping
According to the grouping in Table 4, and the corresponding administration dose, test substance concentration and administration volume, […] above experimental design and methods. For groups G6, G7 and G8, which received a combined administration of the compound of formula I and minoxidil, one drug was administered first followed by the other, with the administration interval between the two drugs not exceeding 1 minute.
as §1

[3] = Day 11, DHT model group: DHT 30 mg/kg subcutaneous injection QD + vehicle topical
[4] = Day 21, DHT model group: DHT 30 mg/kg subcutaneous injection QD + vehicle topical
[5] = Day 11, compound of formula I 0.5% (5 mg/mL) 150 µL topical QD, DHT 30 mg/kg subcutaneous QD
[6] = Day 21, compound of formula I 0.5% (5 mg/mL) 150 µL topical QD, DHT 30 mg/kg subcutaneous QD

C[C@]12CCC(=O)C[C@@H]1CC[C@@H]1[C@@H]2CC[C@]2(C)[C@@H](O)CC[C@@H]12 [DHT, Dihydrotestosterone]
Hair scoring in mice, Score ([1]; Day 7, DHT model group: DHT 30 mg/kg subcutaneous injection QD + vehicle topical): 0.00 | Hair scoring in mice, Score ([1]; Day 9, DHT model group: DHT 30 mg/kg subcutaneous injection QD + vehicle topical): 0.00 | Hair scoring in mice, Score [1, 3]: 0.13 | Hair scoring in mice, Score ([1]; Day 14, DHT model group: DHT 30 mg/kg subcutaneous injection QD + vehicle topical): 0.38 | Hair scoring in mice, Score ([1]; Day 16, DHT model group: DHT 30 mg/kg subcutaneous injection QD + vehicle topical): 0.63 | Hair scoring in mice, Score ([1]; Day 18, DHT model group: DHT 30 mg/kg subcutaneous injection QD + vehicle topical): 1.25 | Hair scoring in mice, Score [1, 4]: 1.75 | Hair scoring in mice, Score ([1]; Day 23, DHT model group: DHT 30 mg/kg subcutaneous injection QD + vehicle topical): 2.13 | Hair scoring in mice ([2]; Day 8, DHT model group: DHT 30 mg/kg subcutaneous injection QD + vehicle topical): 0.00 | Hair scoring in mice [2, 3]: 0.00 | Hair scoring in mice ([2]; Day 15, DHT model group: DHT 30 mg/kg subcutaneous injection QD + vehicle topical): 0.40 | Hair scoring in mice ([2]; Day 17, DHT model group: DHT 30 mg/kg subcutaneous injection QD + vehicle topical): 0.50 | Hair scoring in mice ([2]; Day 19, DHT model group: DHT 30 mg/kg subcutaneous injection QD + vehicle topical): 0.90 | Hair scoring in mice [2, 4]: 1.10

COc1c(C#N)ccc(N2C(=O)C(C)(C)N(c3ccc(C)nc3)C2=S)c1F [compound of formula I, 4-(4,4-dimethyl-3-(6-methylpyridin-3-yl)-5-oxo-2-thioxoimidazolidin-1-yl)-3-fluoro-2-methoxybenzonitrile]
Hair scoring in mice, Score ([1]; Day 7, compound of formula I 0.5% (5 mg/mL) 150 µL topical QD, DHT 30 mg/kg subcutaneous QD): 0.00 | Hair scoring in mice, Score ([1]; Day 7, compound of formula I 1.0% (10 mg/mL) 150 µL topical QD, DHT 30 mg/kg subcutaneous QD): 0.00 | Hair scoring in mice, Score ([1]; Day 9, compound of formula I 0.5% (5 mg/mL) 150 µL topical QD, DHT 30 mg/kg subcutaneous QD): 0.13 | Hair scoring in mice, Score ([1]; Day 9, compound of formula I 1.0% (10 mg/mL) 150 µL topical QD, DHT 30 mg/kg subcutaneous QD): 0.13 | Hair scoring in mice, Score [1, 5]: 0.38 | Hair scoring in mice, Score ([1]; Day 11, compound of formula I 1.0% (10 mg/mL) 150 µL topical QD, DHT 30 mg/kg subcutaneous QD): 0.13 | Hair scoring in mice, Score ([1]; Day 14, compound of formula I 0.5% (5 mg/mL) 150 µL topical QD, DHT 30 mg/kg subcutaneous QD): 0.88 | Hair scoring in mice, Score ([1]; Day 14, compound of formula I 1.0% (10 mg/mL) 150 µL topical QD, DHT 30 mg/kg subcutaneous QD): 0.38 | Hair scoring in mice, Score ([1]; Day 16, compound of formula I 0.5% (5 mg/mL) 150 µL topical QD, DHT 30 mg/kg subcutaneous QD): 1.13 | Hair scoring in mice, Score ([1]; Day 16, compound of formula I 1.0% (10 mg/mL) 150 µL topical QD, DHT 30 mg/kg subcutaneous QD): 1.00 | Hair scoring in mice, Score ([1]; Day 18, compound of formula I 0.5% (5 mg/mL) 150 µL topical QD, DHT 30 mg/kg subcutaneous QD): 1.75 | Hair scoring in mice, Score ([1]; Day 18, compound of formula I 1.0% (10 mg/mL) 150 µL topical QD, DHT 30 mg/kg subcutaneous QD): 1.38 | Hair scoring in mice, Score [1, 6]: 2.25 | Hair scoring in mice, Score ([1]; Day 21, compound of formula I 1.0% (10 mg/mL) 150 µL topical QD, DHT 30 mg/kg subcutaneous QD): 1.88 | Hair scoring in mice, Score ([1]; Day 23, compound of formula I 0.5% (5 mg/mL) 150 µL topical QD, DHT 30 mg/kg subcutaneous QD): 2.50 | Hair scoring in mice, Score ([1]; Day 23, compound of formula I 1.0% (10 mg/mL) 150 µL topical QD, DHT 30 mg/kg subcutaneous QD): 2.38 | Hair scoring in mice ([2]; Day 8, compound of formula I 0.25% (2.5 mg/mL) 150 µL topical QD, DHT 30 mg/kg subcutaneous QD): 0.00 | Hair scoring in mice ([2]; Day 8, compound of formula I 0.5% (5 mg/mL) 150 µL topical QD, DHT 30 mg/kg subcutaneous QD): 0.00 | Hair scoring in mice ([2]; Day 11, compound of formula I 0.25% (2.5 mg/mL) 150 µL topical QD, DHT 30 mg/kg subcutaneous QD): 0.00 | Hair scoring in mice [2, 5]: 0.00 | Hair scoring in mice ([2]; Day 15, compound of formula I 0.25% (2.5 mg/mL) 150 µL topical QD, DHT 30 mg/kg subcutaneous QD): 0.60 | Hair scoring in mice ([2]; Day 15, compound of formula I 0.5% (5 mg/mL) 150 µL topical QD, DHT 30 mg/kg subcutaneous QD): 0.90 | Hair scoring in mice ([2]; Day 17, compound of formula I 0.25% (2.5 mg/mL) 150 µL topical QD, DHT 30 mg/kg subcutaneous QD): 1.00 | Hair scoring in mice ([2]; Day 17, compound of formula I 0.5% (5 mg/mL) 150 µL topical QD, DHT 30 mg/kg subcutaneous QD): 1.40 | Hair scoring in mice ([2]; Day 19, compound of formula I 0.25% (2.5 mg/mL) 150 µL topical QD, DHT 30 mg/kg subcutaneous QD): 1.40 | Hair scoring in mice ([2]; Day 19, compound of formula I 0.5% (5 mg/mL) 150 µL topical QD, DHT 30 mg/kg subcutaneous QD): 1.70 | Hair scoring in mice ([2]; Day 21, compound of formula I 0.25% (2.5 mg/mL) 150 µL topical QD, DHT 30 mg/kg subcutaneous QD): 1.80 | Hair scoring in mice [2, 6]: 2.20
